One data set concerns IL-2 production. The data set can be described thus: Inhibition of IL-2 production in PHA-activated Jurkat cells (ELISA). Format: cell-based. The conditions noted are these: Homo sapiens, 20 h, PHA 2.5 μg/mL, 20 hours at 37° C., IL-2 ELISA. The method, then: Jurkat cells were placed in a 96 well plate (0.5 million cells per well in 1% FBS medium) then a test compound of this invention was added at different concentrations. After 10 minutes, the cells were activated with PHA (final concentration 2.5 μg/mL) and incubated for 20 hours at 37° C. under CO2. The final volume was 200 μL. Following incubation, the cells were centrifuged and the supernatants collected and stored at −70° C. prior to assaying for IL-2 production. A commercial ELISA kit (IL-2 Eli-pair, Diaclone Research, Besancon, France) was used to detect production of IL-2, from which dose response curves were obtained. The IC50 value was calculated as the concentration at which 50% of maximum IL-2 production after stimulation was inhibited versus a non-stimulation control.

Data set [1] can be described thus: Solubility in simulated gastric fluids. Format: physicochemical. The text has this: Solubility in Simulated Gastric Fluids

Values after ≈ are worked out from the molar mass of the structure shown. Like-named read-outs stand apart in the source and are kept apart here.

We go through 22 compounds from patent US20080207641A1 (Synta Pharmaceuticals Corp., priority 2006, published 2008).

Broadly, the IC50 is the concentration at which inhibition is half-maximal. Read a high IC50 as weaker potency. Usually solubility stands for the dissolved amount per volume that the medium holds.

On to `CC1=C(c2cnc(NC(=O)c3c(F)cccc3F)cn2)CN(c2nnn(C)n2)CC1` [Compound 2, 2,6-difluoro-N-(5-(4-methyl-1-(2-methyl-2H-tetrazol-5-yl)-1,2,5,6-tetrahydropyridin-3-yl)pyrazin-2-yl)benzamide], for which the IC50 in the data set with IL-2 production lay within 35 to 75 nM. The concentration in solution in data set [1] (simulated gastric fluid) (solubility) was 50 µM (≈ 20.6 µg/mL).

Consider `CC1=C(c2cnc(NC(=O)c3ccncc3F)cn2)CN(c2nccs2)CC1` [Compound 4, 3-fluoro-N-(5-(4-methyl-1-(thiazol-2-yl)-1,2,5,6-tetrahydropyridin-3-yl)pyrazin-2-yl)isonicotinamide], for which the IC50 in the data set with IL-2 production was no more than 35 nM. This compound also displayed a solubility in data set [1] (simulated gastric fluid) of 50 µM (≈ 19.8 µg/mL).

As for `CC1=C(c2ccc(NCc3c(F)cccc3F)cc2)CN(c2nccs2)CC1` [Compound 5, N-(2,6-difluorobenzyl)-4-(4-methyl-1-(thiazol-2-yl)-1,2,5,6-tetrahydropyridin-3-yl)aniline], the half-maximal inhibitory concentration (IC50) with IL-2 production was no more than 35 nM. The concentration in solution in data set [1] (simulated gastric fluid) (solubility) was 50 µM (≈ 19.9 µg/mL).

Consider `CC1=C(c2ccc(NC(=O)c3c(F)cccc3F)nc2)CN(c2nnn(C)n2)CC1` [Compound 6, 2,6-difluoro-N-(5-(4-methyl-1-(2-methyl-2H-tetrazol-5-yl)-1,2,5,6-tetrahydropyridin-3-yl)pyridin-2-yl)benzamide], for which the 50% inhibitory concentration (IC50) with IL-2 production was no more than 35 nM. In data set [1] (simulated gastric fluid), this compound registered a solubility of 50 µM (≈ 20.6 µg/mL).

`CC1=C(c2ccc(NCc3c(F)cccc3F)nc2)CN(c2nccs2)CC1.Cl.Cl` [Compound 7, N-(2,6-difluorobenzyl)-5-(4-methyl-1-(thiazol-2-yl)-1,2,5,6-tetrahydropyridin-3-yl)pyridin-2-amine dihydrochloride] gave an IC50 in the data set on IL-2 production of 35 to 75 nM. In data set [1] (simulated gastric fluid), this compound yielded a solubility of 100 µM.

As to `CC1=C(c2ccc(NC(=O)c3c(Cl)cccc3Cl)cc2)CN(c2nccs2)CC1` [Compound 10, 2,6-dichloro-N-(4-(4-methyl-1-(thiazol-2-yl)-1,2,5,6-tetrahydropyridin-3-yl)phenyl)benzamide], the IC50 with IL-2 production was 75 to 150 nM. The compound also came in with a solubility in data set [1] (simulated gastric fluid) of 50 µM (≈ 22.2 µg/mL).

Consider `CC1=C(c2ccc(NC(=O)c3c(F)cccc3F)cn2)CN(c2nccs2)CC1` [Compound 11, 2,6-difluoro-N-(6-(4-methyl-1-(thiazol-2-yl)-1,2,5,6-tetrahydropyridin-3-yl)pyridin-3-yl)benzamide], for which the IC50 in the data set with IL-2 production was 75 to 150 nM. The solubility in data set [1] (simulated gastric fluid) was 100 µM (≈ 41.2 µg/mL).

Compound `CC1=C(c2ccc(NC(=O)c3ccccc3F)cc2)CN(c2nccs2)CC1` [Compound 12, 2-fluoro-N-(4-(4-methyl-1-(thiazol-2-yl)-1,2,5,6-tetrahydropyridin-3-yl)phenyl)benzamide] came in with a 50% inhibitory concentration (IC50) in the data set with IL-2 production of no more than 35 nM. The solubility in data set [1] (simulated gastric fluid) was 50 µM (≈ 19.7 µg/mL).

Turning to `CC1=C(c2ccc(NC(=O)c3c(O)cccc3F)cc2)CN(c2nccs2)CC1` [Compound 13, 2-fluoro-6-hydroxy-N-(4-(4-methyl-1-(thiazol-2-yl)-1,2,5,6-tetrahydropyridin-3-yl)phenyl)benzamide], the IC50 in the data set on IL-2 production fell in the range of 150 to 1000 nM. In data set [1] (simulated gastric fluid), this compound showed a solubility of 50 µM (≈ 20.5 µg/mL).

In the data set with IL-2 production, `CCC(Cl)C(=O)Nc1ccc(C2=C(C)CCN(c3nccs3)C2)cc1` (centres unmarked) [Compound 15, 2-chloro-N-(4-(4-methyl-1-(thiazol-2-yl)-1,2,5,6-tetrahydropyridin-3-yl)phenyl)butanamide] yielded an IC50 of no more than 35 nM. The solubility in data set [1] is 150 µM (≈ 56.4 µg/mL).

On to `CC1=C(c2ccc(NC(=O)c3ccc(F)cc3F)cc2)CN(c2nccs2)CC1` [Compound 16, 2,4-difluoro-N-(4-(4-methyl-1-(thiazol-2-yl)-1,2,5,6-tetrahydropyridin-3-yl)phenyl)benzamide], for which the IC50 in the data set on IL-2 production is no more than 35 nM. Besides, the solubility in data set [1] is recorded as 150 µM (≈ 61.7 µg/mL).

For the compound `CC1=C(c2cnc(NC(=O)c3c(F)cccc3Cl)cn2)CN(c2nccs2)CC1` [Compound 20, 2-chloro-6-fluoro-N-(5-(4-methyl-1-(thiazol-2-yl)-1,2,5,6-tetrahydropyridin-3-yl)pyrazin-2-yl)benzamide], the IC50 with IL-2 production was no more than 35 nM. The same compound gave a solubility in data set [1] of 150 µM (≈ 64.5 µg/mL).

In the data set on IL-2 production, `CC1=C(c2ccc(NC(=O)c3c(F)cccc3Cl)nc2)CN(c2nnn(C)n2)CC1` [Compound 23, 2-chloro-6-fluoro-N-(5-(4-methyl-1-(2-methyl-2H-tetrazol-5-yl)-1,2,5,6-tetrahydropyridin-3-yl)pyridin-2-yl)benzamide] displayed a concentration for half-maximal inhibition (IC50) greater than 1000 nM. In data set [1] (simulated gastric fluid), the solubility is 25 µM (≈ 10.7 µg/mL).

For `CC1=C(c2cnc(NC(=O)c3ccc(F)cc3F)cn2)CN(c2nnn(C)n2)CC1` [Compound 24, 2,4-difluoro-N-(5-(4-methyl-1-(2-methyl-2H-tetrazol-5-yl)-1,2,5,6-tetrahydropyridin-3-yl)pyrazin-2-yl)benzamide], in the data set on IL-2 production, the IC50 was in the range of 75 to 150 nM. Besides, the concentration in solution in data set [1] (simulated gastric fluid) (solubility) came to 50 µM (≈ 20.6 µg/mL).

Take `Cn1nnc(N2CCC(Cl)=C(c3ccc(NC(=O)c4c(F)cccc4F)nc3)C2)n1` [Compound 25, N-(5-(4-chloro-1-(2-methyl-2H-tetrazol-5-yl)-1,2,5,6-tetrahydropyridin-3-yl)pyridin-2-yl)-2,6-difluorobenzamide]: the half-inhibitory concentration (IC50) in the data set on IL-2 production is no more than 35 nM. In data set [1] (simulated gastric fluid), this compound showed a solubility of 50 µM (≈ 21.6 µg/mL).

In turn, `O=C(Nc1ccc(C2=C(Cl)CCN(c3nccs3)C2)cn1)c1c(F)cccc1F` [Compound 26, N-(5-(4-chloro-1-(thiazol-2-yl)-1,2,5,6-tetrahydropyridin-3-yl)pyridin-2-yl)-2,6-difluorobenzamide] had an IC50 in the data set on IL-2 production of no more than 35 nM. In data set [1] (simulated gastric fluid), this compound came in with a solubility of 100 µM (≈ 43.3 µg/mL).

The compound `O=C(Nc1ccc(C2=C(Cl)CCN(c3nccs3)C2)cn1)c1ccc(F)cc1F` [Compound 27] displayed an IC50 in the data set with IL-2 production of 75 to 150 nM. Besides, the concentration in solution in data set [1] (simulated gastric fluid) (solubility) came to 50 µM (≈ 21.6 µg/mL).

With `CC1=C(c2ccc(NC(=O)c3ccccc3F)nc2)CN(c2nnn(C)n2)CC1` [Compound 29, 2-fluoro-N-(5-(4-methyl-1-(2-methyl-2H-tetrazol-5-yl)-1,2,5,6-tetrahydropyridin-3-yl)pyridin-2-yl)benzamide], the IC50 with IL-2 production fell in the range of 35 to 75 nM. Moreover, the concentration in solution in data set [1] (simulated gastric fluid) (solubility) was 50 µM (≈ 19.7 µg/mL).

As to `CC1=C(c2cnc(NC(=O)c3c(F)cccc3F)cn2)CN(c2ncco2)CC1` [Compound 30, 2,6-difluoro-N-(5-(4-methyl-1-(oxazol-2-yl)-1,2,5,6-tetrahydropyridin-3-yl)pyrazin-2-yl)benzamide], in the data set with IL-2 production, the concentration for half-maximal inhibition (IC50) was 35 to 75 nM. In addition, the solubility in data set [1] is reported as 150 µM (≈ 59.6 µg/mL).

On to `CC1=C(c2cnc(NC(=O)c3ccccc3F)cn2)CN(c2nccs2)CC1` [Compound 31, 2-fluoro-N-(5-(4-methyl-1-(thiazol-2-yl)-1,2,5,6-tetrahydropyridin-3-yl)pyrazin-2-yl)benzamide], for which the IC50 in the data set on IL-2 production was in the range of 35 to 75 nM. This compound returned a solubility in data set [1] (simulated gastric fluid) of 25 µM (≈ 9.89 µg/mL).

For the compound `CC1=C(c2ccc(NC(=O)c3c(F)cncc3F)cc2)CN(c2nccs2)CC1` [Compound 32, 3,5-difluoro-N-(4-(4-methyl-1-(thiazol-2-yl)-1,2,5,6-tetrahydropyridin-3-yl)phenyl)isonicotinamide], the IC50 in the data set on IL-2 production was no more than 35 nM. In data set [1], this compound came in with a solubility of 150 µM (≈ 61.9 µg/mL).

`CC1=C(c2cnc(NC(=O)c3ccccc3F)cn2)CN(c2nnn(C)n2)CC1` [Compound 33, 2-fluoro-N-(5-(4-methyl-1-(2-methyl-2H-tetrazol-5-yl)-1,2,5,6-tetrahydropyridin-3-yl)pyrazin-2-yl)benzamide]: the IC50 in the data set with IL-2 production was 75 to 150 nM. The compound also came in with a solubility in data set [1] of 150 µM (≈ 59.2 µg/mL).
